According to patent publication US12577226B2, “Compounds for treating Huntington's disease” (PTC THERAPEUTICS, INC., priority 2019, dated 2026):

test system: Endogenous Huntingtin Protein (capture with MW1 (expanded polyglutamine) or MAB2166 antibody); assay: Endogenous Huntingtin Protein Assay (ELISA-based Meso Scale Discovery electrochemiluminescence assay); assay type: cell-based; conditions: MSD electrochemiluminescence platform
Experimental: Compounds of Formula (I), Formula (II), or Formula (III) were tested using the Meso Scale Discovery (MSD) Assay provided in International Application No. PCT/US2016/066042, filed on Dec. 11, 2016 and claiming priority to U.S. Provisional Application U.S. 62/265,652 filed on Dec. 10, 2015, the entire contents of which are incorporated herein by reference.
The Endogenous Huntingtin Protein assay used in Example 1 was developed using the ELISA-based MSD electrochemiluminescence assay platform.
Meso Scale Discovery (MSD) 96-well or 384-well plates were coated overnight at 4° C. with MW1 (expanded polyglutamine) or MAB2166 monoclonal antibody (for capture) at a concentration of 1 μg/mL in PBS (30 μL per well). Plates were then washed three times with 300 μL wash buffer (0.05% Tween-20 in PBS) and blocked (100 μL blocking buffer; 5% BSA in PBS) for 4-5 hours at room temperature with rotational shaking and then washed three times with wash buffer.
Samples (25 μL) were transferred to the antibody-coated MSD plate and incubated overnight at 4° C. After removal of the lysates, the plate was washed three times with wash buffer, and 25 μL of #5656S (Cell signaling; rabbit monoclonal) secondary antibody (diluted to 0.25 μg/mL in 0.05% Tween-20 in blocking buffer) was added to each well and incubated with shaking for 1 Hour at room temperature. Following incubation with the secondary antibody, the wells were rinsed with wash buffer after which 25 μL of goat anti-rabbit SULFO TAG secondary detection antibody (required aspect of the MSD system) (diluted to 0.25 μg/mL in 0.05% Tween-20 in blocking buffer) was added to each well and incubated with shaking for 1 hour at room temperature. After rinsing three times with wash buffer, 150 μL of read buffer T with surfactant (MSD) were added to each empty well, and the plate was imaged on a SI 6000 imager (MSD) according to manufacturers' instructions provided for 96- or 384-well plates.

IC50 | SMILES
≤ 100 nM | CC1(C)C[C@H](Oc2ccc(-c3ncc(-c4ncco4)cc3O)nn2)[C@H](F)C(C)(C)N1 (single isomer, unassigned) [Compound 12, 2-(6-{[(3R,4S)-3-fluoro-2,2,6,6-tetramethylpiperidin-4-yl]oxy}pyridazin-3-yl)-5-(1,3-oxazol-2-yl)pyridin-3-ol or 2-(6-{[(3S,4R)-3-fluoro-2,2,6,6-tetramethylpiperidin-4-yl]oxy}pyridazin-3-yl)-5-(1,3-oxazol-2-yl)pyridin-3-ol]
100 to 500 nM | CC1(C)C[C@H](Oc2ccc(-c3ncc(-c4cn[nH]c4F)cc3O)nn2)[C@H](F)C(C)(C)N1 (single isomer, unassigned) [Compound 22, 5-(5-fluoro-1H-pyrazol-4-yl)-2-(6-{[(3R,4S)-3-fluoro-2,2,6,6-tetramethylpiperidin-4-yl]oxy}pyridazin-3-yl)pyridin-3-ol or 5-(5-fluoro-1H-pyrazol-4-yl)-2-(6-{[(3S,4R)-3-fluoro-2,2,6,6-tetramethylpiperidin-4-yl]oxy}pyridazin-3-yl)pyridin-3-ol]
≤ 100 nM | Cn1cc2cc(-c3cnc(-c4ccc(O[C@H]5CC(C)(C)NC(C)(C)[C@H]5F)nn4)c(O)c3)cc(F)c2n1 (single isomer, unassigned) [Compound 35, 5-(7-fluoro-2-methyl-2H-indazol-5-yl)-2-(6-{[(3R,4S)-3-fluoro-2,2,6,6-tetramethylpiperidin-4-yl]oxy}pyridazin-3-yl)pyridin-3-ol or 5-(7-fluoro-2-methyl-2H-indazol-5-yl)-2-(6-{[(3S,4R)-3-fluoro-2,2,6,6-tetramethylpiperidin-4-yl]oxy}pyridazin-3-yl)pyridin-3-ol]
100 to 500 nM | Cn1ccc(-c2cnc(-c3ccc(O[C@H]4CC(C)(C)NC(C)(C)[C@H]4F)nn3)c(O)c2)cc1=O (single isomer, unassigned) [Compound 37, 6-(6-{[(3R,4S)-3-fluoro-2,2,6,6-tetramethylpiperidin-4-yl]oxy}pyridazin-3-yl)-5-hydroxy-1′-methyl[3,4′-bipyridin]-2′(1′H)-one or 6-(6-{[(3S,4R)-3-fluoro-2,2,6,6-tetramethylpiperidin-4-yl]oxy}pyridazin-3-yl)-5-hydroxy-1′-methyl[3,4′-bipyridin]-2′(1′H)-one]
≤ 100 nM | CC1(C)C[C@@H](Oc2ccc(-c3ncc(-c4cn[nH]c4)cc3O)nn2)[C@@H](F)C(C)(C)N1 (single isomer, unassigned) [Compound 39, 2-(6-{[(3S,4R)-3-fluoro-2,2,6,6-tetramethylpiperidin-4-yl]oxy}pyridazin-3-yl)-5-(1H-pyrazol-4-yl)pyridin-3-ol or 2-(6-{[(3S,4R)-3-fluoro-2,2,6,6-tetramethylpiperidin-4-yl]oxy}pyridazin-3-yl)-5-(1H-pyrazol-4-yl)pyridin-3-ol]
≤ 100 nM | CC1(C)C[C@H](Oc2ccc(-c3ncc(-c4cn[nH]c4)cc3O)nn2)[C@H](F)C(C)(C)N1 (single isomer, unassigned) [Compound 51, 2-(6-{[(3R,4S)-3-fluoro-2,2,6,6-tetramethylpiperidin-4-yl]oxy}pyridazin-3-yl)-5-(1H-pyrazol-4-yl)pyridin-3-ol or 2-(6-{[(3S,4R)-3-fluoro-2,2,6,6-tetramethylpiperidin-4-yl]oxy}pyridazin-3-yl)-5-(1H-pyrazol-4-yl)pyridin-3-ol]
≤ 100 nM | CC1(C)CC(Oc2ccc(-c3ncc(-c4cn[nH]c4)cc3O)nn2)CC(C)(C)N1 [Compound 1, 5-(1H-pyrazol-4-yl)-2-{6-[(2,2,6,6-tetramethylpiperidin-4-yl)oxy]pyridazin-3-yl}pyridin-3-ol]
≤ 100 nM | [2H]C([2H])([2H])n1cc(-c2cnc(-c3ccc(OC4CC(C)(C)NC(C)(C)C4)nn3)c(O)c2)cn1 [Compound 3, 5-[1-(^2H3)methyl-1H-pyrazol-4-yl]-2-{6-[(2,2,6,6-tetramethylpiperidin-4-yl)oxy]pyridazin-3-yl}pyridin-3-ol]
≤ 100 nM | Cn1ccc(-c2cnc(-c3ccc(OC4CC(C)(C)NC(C)(C)C4)nn3)c(O)c2)n1 [Compound 4, 5-(1-methyl-1H-pyrazol-3-yl)-2-{6-[(2,2,6,6-tetramethylpiperidin-4-yl)oxy]pyridazin-3-yl}pyridin-3-ol]
≤ 100 nM | CC1(C)CC(Oc2ccc(-c3ncc(-n4ccnc4)cc3O)nn2)CC(C)(C)N1 [Compound 5, 5-(1H-imidazol-1-yl)-2-{6-[(2,2,6,6-tetramethylpiperidin-4-yl)oxy]pyridazin-3-yl}pyridin-3-ol]
≤ 100 nM | CC1(C)C[C@H](Nc2ccc(-c3ncc(-c4cn[nH]c4)cc3O)nn2)[C@@H](F)C(C)(C)N1 [Compound 8, 2-(6-{[(3R,4S)-3-fluoro-2,2,6,6-tetramethylpiperidin-4-yl]amino}pyridazin-3-yl)-5-(1H-pyrazol-4-yl)pyridin-3-ol]
≤ 100 nM | CC1(C)CC(Oc2ccc(-c3ncc(-c4ncco4)cc3O)nn2)CC(C)(C)N1 [Compound 10, 5-(1,3-oxazol-2-yl)-2-{6-[(2,2,6,6-tetramethylpiperidin-4-yl)oxy]pyridazin-3-yl}pyridin-3-ol]
≤ 100 nM | CC1(C)CC(Oc2ccc(-c3ncc(-n4nccn4)cc3O)nn2)CC(C)(C)N1 [Compound 20, 2-{6-[(2,2,6,6-tetramethylpiperidin-4-yl)oxy]pyridazin-3-yl}-5-(2H-1,2,3-triazol-2-yl)pyridin-3-ol]
≤ 100 nM | CC1(C)CC(Oc2ccc(-c3ncc(-n4nccn4)cc3O)nn2)CC2(CC2)N1 (stereo not drawn) [Compound 21, 2-{6-[(5,5-dimethyl-4-azaspiro[2.5]octan-7-yl)oxy]pyridazin-3-yl}-5-(2H-1,2,3-triazol-2-yl)pyridin-3-ol]
≤ 100 nM | [2H]C([2H])([2H])n1cc(-c2cnc(-c3ccc(N4CC[C@@H](NC(C)(C)C)C4)nn3)c(O)c2)cn1 [Compound 23, 2-{6-[(3R)-3-(tert-butylamino)pyrrolidin-1-yl]pyridazin-3-yl}-5-[1-(^2H3)methyl-1H-pyrazol-4-yl]pyridin-3-ol]
≤ 100 nM | CC(C)(C)N[C@@H]1CCN(c2ccc(-c3ncc(-n4nccn4)cc3O)nn2)C1 [Compound 24, 2-{6-[(3R)-3-(tert-butylamino)pyrrolidin-1-yl]pyridazin-3-yl}-5-(2H-1,2,3-triazol-2-yl)pyridin-3-ol]
≤ 100 nM | [2H]C([2H])([2H])Oc1cc(-c2cnc(-c3ccc(N[C@@H]4CC(C)(C)NC(C)(C)[C@@H]4F)nn3)c(O)c2)ncn1 [Compound 25, 2-(6-{[(3R,4R)-3-fluoro-2,2,6,6-tetramethylpiperidin-4-yl]amino}pyridazin-3-yl)-5-{6-[(^2H3)methyloxy]pyrimidin-4-yl}pyridin-3-ol]
≤ 100 nM | CC1(C)CC(Oc2ccc(-c3ncc(-c4cn[nH]c4F)cc3O)nn2)CC2(CC2)N1 (stereo not drawn) [Compound 26, 2-{6-[(5,5-dimethyl-4-azaspiro[2.5]octan-7-yl)oxy]pyridazin-3-yl}-5-(5-fluoro-1H-pyrazol-4-yl)pyridin-3-ol]
≤ 100 nM | CC1(C)CC(Oc2ccc(-c3ncc(-c4cn[nH]c4)cc3O)nn2)CC2(CC2)N1 (stereo not drawn) [Compound 27, 2-{6-[(5,5-dimethyl-4-azaspiro[2.5]octan-7-yl)oxy]pyridazin-3-yl}-5-(1H-pyrazol-4-yl)pyridin-3-ol]

SMILES | IC50
Cn1cc2cc(-c3cnc(-c4ccc(O[C@H]5CC(C)(C)NC(C)(C)[C@H]5F)nn4)c(O)c3)cc(C#N)c2n1 (single isomer, unassigned) [Compound 34, 5-[6-(6-{[(3R,4S)-3-fluoro-2,2,6,6-tetramethylpiperidin-4-yl]oxy}pyridazin-3-yl)-5-hydroxypyridin-3-yl]-2-methyl-2H-indazole-7-carbonitrile or 5-[6-(6-{[(3S,4R)-3-fluoro-2,2,6,6-tetramethylpiperidin-4-yl]oxy}pyridazin-3-yl)-5-hydroxypyridin-3-yl]-2-methyl-2H-indazole-7-carbonitrile] | ≤ 100 nM
CN(c1ccc(-c2ncc(-c3cn[nH]c3)cc2O)nn1)C1CC(C)(C)NC(C)(C)C1 [Compound 2, 2-{6-[methyl(2,2,6,6-tetramethylpiperidin-4-yl)amino]pyridazin-3-yl}-5-(1H-pyrazol-4-yl)pyridin-3-ol] | ≤ 100 nM
CN(c1ccc(-c2ncc(-c3ccn(C)n3)cc2O)nn1)C1CC(C)(C)NC(C)(C)C1 [Compound 13, 5-(1-methyl-1H-pyrazol-3-yl)-2-{6-[methyl(2,2,6,6-tetramethylpiperidin-4-yl)amino]pyridazin-3-yl}pyridin-3-ol] | ≤ 100 nM
CN(c1ccc(-c2ncc(-c3ncco3)cc2O)nn1)C1CC(C)(C)NC(C)(C)C1 [Compound 14, 2-{6-[methyl(2,2,6,6-tetramethylpiperidin-4-yl)amino]pyridazin-3-yl}-5-(1,3-oxazol-2-yl)pyridin-3-ol] | ≤ 100 nM
CN(c1ccc(-c2ncc(-n3ccnc3)cc2O)nn1)C1CC(C)(C)NC(C)(C)C1 [Compound 15, 5-(1H-imidazol-1-yl)-2-{6-[methyl(2,2,6,6-tetramethylpiperidin-4-yl)amino]pyridazin-3-yl}pyridin-3-ol] | ≤ 100 nM
